This note sets out measurements from patent US5527773A, “Use of synthetic peptides to disrupt the cytoskeleton” (United States of America, priority 1993, dated 1996).

One data set deals with preformed keratin IFs. The data set can be described thus: Disassembly of preformed keratin IFs by synthetic peptides (light scattering, electron microscopy). It is filed as biochemical, human. The procedure: In vitro filament assembly assays (1-1.5 mg/ml) were performed by dialysis for 2 hours each into decreasing concentrations of urea (6, 4, 2, 1 and 0M) containing 5 mM Tris-HCl, pH 7.6, 1 mM EDTA, 1 mM dithiothreitol. […]. Light scattering was measured at 310 nm in a Beckman DU65 spectrophotometer. Synthetic peptides (1-30 μl of a 0.5-2 mg/ml solution) were added to 1 ml samples of keratin filaments, incubated at 37° C., and filament assembly was measured by light scattering. […] Samples of these reactions were also collected for visualization by electron microscopy and stopped by negative staining with freshly-prepared 0.7% uranyl acetate.
Peptides corresponding to the H1, beginning of 1A, and full-length 1A regions (SEQ ID NO: 1-3) of the human keratin 1 chain were individually mixed with preformed keratin IFs in vitro at a 1:1 molar ratio.

The subject of data set [1] is keratin and vimentin/desmin IF networks in PtK2, BHK21 and mouse 3T3 fibroblasts. The data set can be described thus: Microinjection of the 1A peptide into cells, indirect immunofluorescence and confocal microscopy. It is filed as cell-based, kangaroo rat, baby hamster. How it is done: The synthetic peptide corresponding to the keratin 1 chain 1A region (SEQ ID NO: 2) was microinjected into PtK2, BHK21 and mouse 3T3 fibroblasts according to the procedure of Vikstrom et al. (Proc. Natl. Acad. Sci. U.S.A., (1989) 86: 549-553; Methods Enzymol., (1991) 176: 506-525). BHK-21 cells contain type III filaments composed of vimentin and desmin, while 3T3 cells contain only vimentin. PtK2 cells contain mainly keratin. Briefly, peptides in 20 mM Tris-HCl. pH 8.5, 0.17M NaCl, 3 mM KCl were clarified by centrifugation for 30 min at 100,000×g immediately prior to microinjection. Protein concentrations in samples were determined by the method of Bradford (Anal. Biochem., 72: 248-254 (1976)). Micropipettes (W-P instruments) were prepared on a micropipette puller (Industrial Science Associates). Microinjections were monitored with a Leitz Diavert phase-contrast microscope fitted with a Leitz micromanipulator according to standard techniques (Graessmann and Graessmann, (1976) Proc. Natl. Acad. Sci. U.S.A., 73: 366-370; Kreis and Birchmeier, (1982) Int. Rev. Cytol., 75: 209-227).
(§1) Microinjected cells were prepared for indirect immunofluorescence and confocal microscopy as described (Yang et al., (1985) J. Cell Biol., 100: 620-631). IF disassembly was assessed by immunofluorescence using antibodies against IFs. […] At 1 mg/ml peptide, cells rounded up completely within 30 min, respreading and regaining their shape after a few hours. […] The rounded-up cells contained spots of fluorescence indicating a rather complete disruption of IF structure. Recovery occurred within 3-4 hours indicating a need to maintain a constant supply of peptide to maintain the disassembled state of the IF network. The 1A peptide was soluble at 5-10 mg/ml, although higher concentrations may also be obtainable.

Data set [2] can be described thus: Solubility of the peptide. It is filed as physicochemical. The procedure: as §1

With “1A*: the first 18 amino acids of SEQ ID NO: 2 (1A peptide) (REQIKSLNNQFASFIDKV)”, the reversibility of disassembly entry with preformed keratin IFs (1:1 molar ratio) is on record as “reversible upon removal of the peptide”. For the same substance, the “time to disassembly of preformed IFs down to single coiled-coil molecules” value in the data set on preformed keratin IFs (1:1 molar ratio peptide to preformed keratin IFs, light scattering and electron microscopy) is recorded as at most 30 min. Further, in data set [1] (1 mg/ml peptide), the “IF structure by immunofluorescence during rounding” value was “disorganized arrays of IFs” and the “time to complete rounding up of cells” value is at most 30 min. In data set [1] (2-5 mg/ml peptide), the “alteration of IF networks” value was “very significant alterations in both the keratin and vimentin/desmin IF networks”; the time to recovery is 3 to 4 h. Besides, in data set [1] (about 0.5 mg/ml peptide microinjected, after 15-20 min), the overall cell shape entry is reported as “altered slightly due to the partial rounding up”. Further, the “overall IF structure by immunofluorescence” value in data set [1] (about 0.5 mg/ml peptide, 30 min post-injection) is on record as “no significant changes in overall IF structure”. In data set [2], the solubility was in the range of 5000 to 10000 µg/mL.

A word on the solubility: it is the concentration that dissolves in the medium under given conditions. A high value points to a readily soluble substance.
